Assay results from patent publication US10689458B2, “Site specific HER2 antibody drug conjugates” (Pfizer Inc., priority 2015, dated 2020).
“Also recorded” adds a separate entry of the source. Where two headings read alike, the source gives them in different places. Square brackets hold non-standard residues; d marks the D form. Peptide text beside a SMILES is read from it. * marks the point of attachment. Dolaproine = CO[C@@H]([C@@H]1CCCN1)[C@@H](C)C(=O)O; Dil = CC[C@H](C)[C@H](NC)[C@@H](CC(=O)O)OC; Doe = c1ccc(C[C@H](N*)c2nccs2)cc1; Aib = CC(C)(N)C(=O)O

Experiments:
[1] = test system: parental N87 cells; test: Cytotoxicity on parental N87 cells (CellTiter Glo, 96 hours); type: cell-based; conditions: free payload, N87 cell line, read-out: Sensitivity to free payload (IC50), N87
Description: (§1) Cells were incubated for 96 hours in a humidified 37° C./5% CO2 incubator.

[2] = test system: T-DM1 resistant cells (N87-TDM); test: Cytotoxicity on cells relapsed from T-DM1 treatment in vivo (CellTiter Glo, 96 hours); type: cell-based; conditions: for IC50: 96 h; for sensitivity of cells relapsed from T-DM1 treatment (in words): compared to parental N87
Description: as §1

[3] = test system: N87-TM cells; test: Cytotoxicity on T-DM1 resistant cells made in vitro, population not specified (MTS, 4 days); type: cell-based; conditions: N87-TM versus N87-parental
Description: (§2) N87 cells were passaged into two separate flasks and each flask was treated identically with respect to the resistance-generation protocol to enable biological duplicates. […] The procedure was intended to simulate the chronic, multi-cycle (on/off) dosing at maximally tolerated doses typically used for cytotoxic therapeutics in the clinic, followed by a recovery period. […] Data were collected from various thawed cryopreserved populations derived from a single selection, over approximately 1-2 years after model development to ensure consistency in the results.
(§3) ADCs were prepared as indicated in Example 3. Unconjugated maytansine analog (DM1) and auristatin analogs were prepared by Pfizer Worldwide Medicinal Chemistry (Groton, Conn.). Other standard-of-care chemotherapeutics were purchased from Sigma (St. Louis, Mo.). Cells were seeded in 96-well plates at low density, then treated the following day with ADCs and unconjugated payloads at 3-fold serial dilutions at 10 concentrations in duplicate. Cells were incubated for 4 days in a humidified 37° C./5% CO2 incubator. The plates were harvested by incubating with CellTiter® 96 AQueous One MTS Solution (Promega, Madison, Wis.) for 1.5 hours and absorbance measured on a Victor plate reader (Perkin-Elmer, Waltham, Mass.) at wavelength 490 nm. IC50 values were calculated using a four-parameter logistic model with XLfit (IDBS, Bridgewater, N.J.).

[4] = test system: N87 tumors; test: In vivo efficacy on parental N87 tumors in NSG mice; design: species or system mouse; conditions: 6 and 10 mg/kg, Q4Dx4, N87 model
Description: Mice were injected subcutaneously in the right flank with suspensions of either N87 or N87-TM cells (7.5×10^6 cells per injection, with 50% Matrigel). Mice were randomized into study groups when tumors reached ˜0.3 g (˜250 mm^3). […] Tumors were measured weekly and mass calculated as volume=(width×width×length)/2. Time-to-event analysis (tumor doubling) was conducted and significance evaluated by Log-rank (Mantel-Cox) test.

[5] = test system: N87 gastric xenografts; test: N87 gastric xenograft model; type: in vivo, mouse; conditions: IV Q4dx4
Description: (§4) For each model described below the first dose was given on Day 1. The tumors were measured at least once a week and their volume was calculated with the formula: tumor volume (mm^3)=0.5× (tumor width^2)(tumor length). The mean tumor volumes (±S.E.M.) for each treatment group were calculated having a maximum of 8-10 animals and a minimum of 6-8 animals to be included.
When the tumors reached a volume of 250 to 450 mm^3, the tumors were staged to ensure uniformity of the tumor mass among various treatment groups.

[6] = test system: Her2-expressing cell lines BT474 and SKBR3; test: ADCC assay (LDH release, NK-92 or human PBMC effector cells); type: cell-based; conditions: 1 μg/ml antibody or ADC, 6 hours
Description: In ADCC assays, Her2-expressing cell lines BT474 and SKBR3 were used as target cells while NK-92 cells (an interleukin-2 dependent natural killer cell line derived from peripheral blood mononuclear cells from a person by Conkwest) or human peripheral blood mononucleocytes (PBMC) isolated from the freshly drawn blood from a healthy donor (#179) were used as effector cells.
Target cells (BT474 or SKBR3) of 1×10^4 cells/100 μl/well were placed in 96-well plate and cultured overnight in RPMI1640 media at 37° C./5% CO2. […]
Assay plates were incubated at 37° C./5% CO2 for 6 hours and then equilibrated to room temperature. LDH release from cell lysis was measured using CytoTox-One™ reagent at an excitation wavelength of 560 nm and an emission wavelength of 590 nm. […]
“Experimental” corresponds to the signal measured in one of the condition described above.
“Effector spontaneous” corresponds to the signal measured in the presence of PBMC alone.
“Target spontaneous” corresponds to the signal measured in the presence of target cells alone.
“Target Maximum” corresponds to the signal measured in the presence of detergent-lysed target cells alone.

[7] = test system: 37622 patient-derived xenografts; conditions: 10 mg/kg, IV Q4dx4
Description: as §4
Several ADCs were tested in patient-derived Non-Small Cell Lung Cancer xenograft model of 37622 obtained in accordance with appropriate consent procedures. The 37622 patient-derived xenografts were subcutaneously passaged in vivo as fragments from animal to animal in nude (Nu/Nu) female mice. When the tumors reached a volume of 150 to 300 mm^3, they were staged to ensure uniformity of the tumor size among various treatment groups.

[8] = test system: N87 cells; conditions: read-out: IC80, payload concentration, approximate
Description: as §2, §3

[9] = test system: 144580 breast patient-derived xenografts; conditions: all doses tested (1, 5, 3 and 6 mg/kg), IV Q4dx4
Description: as §4
The 144580 breast patient-derived xenografts were subcutaneously passaged in vivo as fragments from animal to animal in nude (Nu/Nu) female mice. When the tumors reached a volume of 150 to 300 mm^3, they were staged to ensure uniformity of the tumor size among various treatment groups.

[10] = test system: JIMT-1 breast xenografts; conditions: even at 6 mg/kg, IV Q4dx4
Description: as §4
To generate xenografts, nude (Nu/Nu) female mice were implanted subcutaneously with 5×10^6 JIMT-1 cells (DSMZ # ACC-589) in 50% Matrigel (BD Biosciences). When the tumors reached a volume of 200 to 250 mm^3, the tumors were staged to ensure uniformity of the tumor mass among various treatment groups.

[11] = test system: N87 xenografts; test: T-DM1 resistance generated in vivo in N87 xenografts and follow-on treatment; design: species or system mouse; conditions: […] weekly, n=20
Description: Tumors were measured twice per week or weekly and mass calculated as volume=(width×width×length)/2.

[12] = test system: GA0044 patient-derived xenografts; test: GA0044 patient-derived gastric cancer xenograft model; type: in vivo, mouse; conditions: IV Q4dx4, dose not stated
[13] = test system: N87 cell line xenograft tumors; test: Bystander effect, immunohistochemistry (human IgG, pHH3) of N87 xenograft tumors; type: in vivo, mouse; conditions: single dose, T-DM1 6 mg/kg or T-vc0101 3 mg/kg, 96 hours
Description: Tumor sections were stained for human IgG to detect ADC bound to tumor cells and phospho-histone H3 (pHH3) to detect mitotic cells as a readout of the proposed mechanism of action for the payloads of both ADCs.

[14] = read-out: Sensitivity to free payload (IC50), N87-T-DM1_Ms2
[15] = read-out: Sensitivity to free payload (IC50), N87-T-DM1_Ms7
[16] = read-out: Sensitivity to free payload (IC50), N87-T-DM1_Ms17

| Compound | IC50 [1] [µM] | IC50 [2, 14] [µM] | IC50 [2, 15] [µM] | IC50 [2, 16] [µM] | sensitivity of N87-TM cells (in words) [3] | sensitivity of cells relapsed from T-DM1 treatment (in words) [2] | also measured |
| --- | --- | --- | --- | --- | --- | --- | --- |
| CC[C@H](C)[C@@H]([C@@H](CC(=O)N1CCC[C@H]1[C@H](OC)[C@@H](C)C(=O)N[C@@H](Cc1ccccc1)c1nccs1)OC)N(C)C(=O)[C@@H](NC(=O)C(C)(C)N)C(C)C [Aur-0101] (H-[Aib]V[Dil][Dolaproine]-Doe) | 0.0005 | 0.0004 | 0.0006 | 0.00028 | – | – | – |
| COc1cc2cc(c1Cl)N(C)C(=O)C[C@H](OC(=O)[C@H](C)N(C)C(=O)CCS)[C@]1(C)O[C@H]1[C@H](C)[C@@H]1C[C@@](O)(NC(=O)O1)[C@H](OC)/C=C/C=C(\C)C2 [DM1] | – | – | – | – | retained sensitivity | – | – |
| CC[C@H](C)[C@@H]([C@@H](CC(=O)N1CCC[C@H]1[C@H](OC)[C@@H](C)C(=O)N[C@@H](Cc1ccccc1)c1nccs1)OC)N(C)C(=O)[C@@H](NC(=O)C(C)(C)N)C(C)C [compound 0101, 2-methylalanyl-N-[(3R,4S,5S)-3-methoxy-1-{(2S)-2-[(1R,2R)-1-methoxy-2-methyl-3-oxo-3-{[(1S)-2-phenyl-1-(1,3-thiazol-2-yl)ethyl]amino}propyl]pyrrolidin-1-yl}-5-methyl-1-oxoheptan-4-yl]-N-methyl-L-valinamide] (H-[Aib]V[Dil][Dolaproine]-Doe) | – | – | – | – | retained sensitivity | surprisingly sensitive; also recorded: not resistant | – |
| COc1cccc2c1C(=O)c1c(O)c3c(c(O)c1C2=O)C[C@@](O)(C(=O)CO)C[C@@H]3O[C@H]1C[C@H](N)[C@H](O)[C@H](C)O1 [doxorubicin] | 0.048 | 0.046 | 0.079 | 0.034 | lack of cross-resistance | No resistance | – |
| CC(=O)O[C@H]1C(=O)[C@@]2(C)[C@H]([C@H](OC(=O)c3ccccc3)[C@]3(O)C[C@H](OC(=O)[C@H](O)[C@@H](NC(=O)c4ccccc4)c4ccccc4)C(C)=C1C3(C)C)[C@]1(OC(C)=O)CO[C@@H]1C[C@@H]2O [paclitaxel] | – | – | – | – | lack of cross-resistance | – | – |
| T-DM1 | – | – | – | – | – | resistant | mice in which tumor doubling was prevented for at least 60 days [4]: > 50%; tumor response ([5]; 10 mg/kg): complete regression of tumors; tumor response ([5]; 1 and 3 mg/kg): delayed tumor growth; ADCC activity (in words) [6]: conform the reported ADCC activities; tumor response [7]: only provided some therapeutic benefit; IC80 [8]: ~0.01 µM; tumor response [9]: ineffective; tumor response [10]: inactive; mice that responded to initial T-DM1 treatment [11]: 17 out of 20; tumor growth compared to vehicle [12]: no appreciable difference in tumor growth as compared to vehicle treated tumors; location of the majority of pHH3 positive tumor cells [13]: located near the ADC |
